Laboratory results taken from the CheMixHub viscosity set.

Assay: xn = mol fraction of the nth substance listed

ClC(Cl)(Cl)Cl + c1ccccc1
Conditions	viscosity [mPa·s]
293.25 K, 101 kPa, x1 = 0.4	0.8063
293.25 K, 101 kPa, x1 = 0.5	0.8381
293.25 K, 101 kPa, x1 = 0.8	0.943
293.35 K, 101 kPa, x1 = 0.2	0.7416
298 K, 101 kPa, x1 = 0.1367	0.64
298 K, 101 kPa, x1 = 0.1809	0.653
298 K, 101 kPa, x1 = 0.2176	0.664
298 K, 101 kPa, x1 = 0.2521	0.672
298 K, 101 kPa, x1 = 0.2882	0.68
298 K, 101 kPa, x1 = 0.3188	0.688
298 K, 101 kPa, x1 = 0.3463	0.697
298 K, 101 kPa, x2 = 0.189	0.8814
298 K, 101 kPa, x2 = 0.2701	0.8626
298 K, 101 kPa, x2 = 0.344	0.845
298 K, 101 kPa, x2 = 0.4734	0.8084
298 K, 101 kPa, x2 = 0.583	0.7751
298 K, 101 kPa, x2 = 0.6318	0.7601
298 K, 101 kPa, x2 = 0.6771	0.7455
298 K, 101 kPa, x2 = 0.7194	0.7309
298 K, 101 kPa, x2 = 0.7588	0.7176
298 K, 101 kPa, x2 = 0.8303	0.6917
298 K, 101 kPa, x2 = 0.8935	0.667
298 K, 101 kPa, x2 = 0.9224	0.6567
298 K, 101 kPa, x2 = 0.9497	0.6424
298 K, 101.3 kPa, x1 = 0.1472	0.655
298 K, 101.3 kPa, x1 = 0.2844	0.69
298 K, 101.3 kPa, x1 = 0.4778	0.744
298 K, 101.3 kPa, x1 = 0.6302	0.79
298 K, 101.3 kPa, x1 = 0.8302	0.842
298.15 K, 101 kPa, x1 = 0.0951	0.6268
298.15 K, 101 kPa, x1 = 0.169	0.6474
298.15 K, 101 kPa, x1 = 0.2348	0.6652
298.15 K, 101 kPa, x1 = 0.2559	0.6726
298.15 K, 101 kPa, x1 = 0.3734	0.7073
298.15 K, 101 kPa, x1 = 0.4835	0.7352
298.15 K, 101 kPa, x1 = 0.4917	0.7429
298.15 K, 101 kPa, x1 = 0.5951	0.7742
298.15 K, 101 kPa, x1 = 0.6135	0.7803
298.15 K, 101 kPa, x1 = 0.7561	0.8236
298.15 K, 101 kPa, x1 = 0.7767	0.8291
298.15 K, 101 kPa, x1 = 0.9264	0.8783
298.15 K, 101 kPa, x2 = 0.1022	0.8965
298.15 K, 101 kPa, x2 = 0.2	0.832
298.15 K, 101 kPa, x2 = 0.2062	0.8621
298.15 K, 101 kPa, x2 = 0.2386	0.808
298.15 K, 101 kPa, x2 = 0.3055	0.8356
298.15 K, 101 kPa, x2 = 0.4	0.773
298.15 K, 101 kPa, x2 = 0.4022	0.8053
298.15 K, 101 kPa, x2 = 0.5051	0.7709
298.15 K, 101 kPa, x2 = 0.5755	0.706
298.15 K, 101 kPa, x2 = 0.6	0.714
298.15 K, 101 kPa, x2 = 0.604	0.7357
298.15 K, 101 kPa, x2 = 0.7006	0.7062
298.15 K, 101 kPa, x2 = 0.736	0.66
298.15 K, 101 kPa, x2 = 0.8	0.658
298.15 K, 101 kPa, x2 = 0.8004	0.6785
298.15 K, 101 kPa, x2 = 0.8991	0.6415
298.15 K, 101.33 kPa, x1 = 0.125	0.6346
298.15 K, 101.33 kPa, x1 = 0.2348	0.6652
298.15 K, 101.33 kPa, x1 = 0.4835	0.7352
298.15 K, 101.33 kPa, x1 = 0.5	0.7404
298.15 K, 101.33 kPa, x1 = 0.65	0.7872
298.15 K, 101.33 kPa, x1 = 0.7767	0.8291
298.15 K, 101.33 kPa, x1 = 0.9	0.8691
302.65 K, 101 kPa, x1 = 0.4	0.707
302.65 K, 101 kPa, x1 = 0.5	0.7278
